# Read-outs that look alike come from different tables or passages of the source.
# Columns and labels:
# Assay type in all cases: in vivo
# [1] = tested on: hind limb tonic extensor component of the maximal seizure pattern; assay: Anticonvulsive activity in mice, maximal electroshock seizure pattern method; details: Mus musculus, male mice, oral, maximal electroshock 50 mA, 0.2 sec.
# Description: (§1) The anticonvulsive activity and toxicity of the compounds of this invention were ascertained by the methods described below, and tables I and II show the results of these tests for a few representative species of the genus, where
# Male mice with body weights of between 20 and 26 gm were used as the test animals. They were allowed free access to food and water up to one hour before administration of the test compound. The tests were carried out by using the maximal electroshock seizure pattern method [SWINYARD et, J. Pharmacol. exp. Ther. 106, 319 (1952)].
# The electroshock apparatus was constructed according to WOODBURY and DAVENPORT [Arch. int. Pharmacodyn. 99, 97 (1952)]. The electric impulses (50 Hz A.C., 50 mA, 0.2 sec.) were delivered via steel ball electrodes covered with buckskin and moistened with an aqueous 0.9% sodium chloride solution to the heads by way of the eyes of the mice. The test is a measure of the ability of an anticonvulsant drug to abolish the hind limb tonic extensor component of the maximal seizure pattern induced by electric stimulation. The test compound was suspended in 1% of tylose and administered orally in a volume of 0.1 ml per 10 gm of mouse, and each dosage was administered to a group of 10 animals. Control groups received the suspension agent orally. 30, 150 and 300 minutes after administration all animals were shocked. ED50 values were determined by the graphic statistical method of LITCHFIELD and WILCOXON [J. Pharmacol. exp. Therap. 96, 99 (1949)] as a measure of the ability of the test compounds to abolish the hindlimb tonic extensor compound of the maximal seizure pattern in 50 percent of the animals.
# Acute toxicity = details: mouse, in vivo, po; mice, p.o., groups of 10, observation time 4 days
# Description: as §1
# (§2) The acute toxicity of the compounds was determined after administration of various dosages to groups of 10 mice with body weights of between 20 and 26 gm (observation time: 4 days).
# mice = assay: Acute toxicity; details: 500 mgm/kg p.o., observation time 4 days
# Description: as §1, §2
# [2] = 0.5 h, shocked 30 minutes after administration, read-out: ED50, 30 minutes
# [3] = 2.5 h, shocked 150 minutes after administration, read-out: ED50, 150 minutes
# [4] = 5 h, shocked 300 minutes after administration, read-out: ED50, 300 minutes
SMILES,"ED50 [1, 2]","ED50 [1, 3]","ED50 [1, 4]",LD50 at 96 h (Acute toxicity),animals died (mice)
"C[S+]([O-])CCN1C(=O)c2ccccc2C(C)(C)C1=O (stereo not drawn) [B, 4,4-Dimethyl-2-(2-methylsulfinyl-ethyl)-2H,4H-isoqionoline-1,3-dione]",14.5 mg/kg,16.8 mg/kg,25 mg/kg,~500 mg/kg,4 of 10
"CC1(C)C(=O)N(CCS(C)(=O)=O)C(=O)c2ccccc21 [C, 4,4-Dimethyl-2-(2-methylsulfonyl-ethyl)-2H,4H-isoquinoline-1,3-dione]",26.3 mg/kg,35.2 mg/kg,32.5 mg/kg,> 500 mg/kg,1 of 10
"CSCCN1C(=O)c2ccccc2C(C)(C)C1=O [Compound A, 4,4-Dimethyl-2-(2-methylmercapto-ethyl)-2H,4H-isoquinoline-1,3-dione]",17.3 mg/kg,22.8 mg/kg,27.8 mg/kg,> 500 mg/kg,0 of 10
"CSCN1C(=O)c2ccccc2C(C)(C)C1=O [D, 4,4-Dimethyl-2-(methylmercapto-methyl)-2H,4H-isoquinoline-1,3-dione]",28 mg/kg,16.2 mg/kg,19.8 mg/kg,,
"C[S+]([O-])CN1C(=O)c2ccccc2C(C)(C)C1=O (stereo not drawn) [E, 4,4-Dimethyl-2-(methylsulfinyl-methyl)-2H,4H-isoquinoline-1,3-dione]",8.3 mg/kg,10.5 mg/kg,11.5 mg/kg,,

# — US4179508A, “Sulfur-containing derivatives of 4,4-dimethyl-2H,4H-isoquinoline-1,3-dione, and anticonvulsant and antihyperlipidemic compositions thereof” (Boehringer Ingelheim GmbH, priority 1977, dated 1979)
